{"source": "patent US20250151724A1", "about": "“Liquid Soil Treatments Containing Choline” (Harrell's, LLC, priority 2023, published 2025)", "test_system": "creeping bentgrass", "test": "Experiment No. 1: growth chamber pot trial, foliar GB and choline under heat and mild drought stress", "type": "in vivo", "details": "for Root Viability: TTC method", "protocol": "A growth chamber pot trial was conducted as follows. […] The choline used in this study was supplied in the form of choline chloride from Sigma-Aldrich, Inc. (St. Louis, MO). […] These conditions simulated summer putting green stress. The treatments were as follows: • 1. […] GB at 0.5 oz./1,000 ft^2 every 14 days. • 3. GB at 1.0 oz./1,000 ft^2 every 14 days. • 4. […] The rate and source of fertilization for treatments #2-7 was the same as treatment #1 (fertilized control), so all seven treatments received identical fertility input. […] The term “low rate” is used in this description of Experiment No. 1 to refer to 0.5 oz./1,000 ft^2 treatments, while the term “high rate” is used to refer to 1.0 oz./1,000 ft^2 treatments. […] Photochemical efficiency (PE). Photochemical Efficiency was measured with a chlorophyll fluorometer (OS-50II, Opti-Sciences, Inc., Hudson, NH) biweekly based on the Fv/Fm, which is the ratio of variable chlorophyll fluorescence (Fv) to maximum chlorophyll fluorescence (Fm). […] Chlorophyll content. After clipping yields were weighed, leaf tissues were ground into powder, and chlorophyll was extracted in pure acetone content for 72 hours, and the absorbance was measured using a spectrophotometer. • e. Leaf carotenoids were extracted in the same sample as for chlorophyll content and carotenoids were measured using a spectrophotometer (Zhang et al., 2005). • f. Leaf proline content. […] After centrifuging, the supernatant was collected, and proline was analyzed according to Wu et al., 2017. • g. Root viability. […] Root growth characteristics. At the end of trial, roots from each pot were washed and cleaned. Roots were scanned using WinRHIZOTM technology (Regent Instruments Inc., Quebec, Canada), and root length, root surface area, root diameter, and root volume were calculated. (Zhang et al., 2017). • i. Root biomass of each pot was determined at the end of the trial. Roots were dried at 65° C. for 72 hours before being weighed.", "data": [{"smiles": "C[N+](C)(C)CC(=O)[O-]", "note": "[GB, Glycine betaine, reference compound]", "values": [{"measurement": "Clippings dry wt", "setting": "0.5 oz/1000 ft^2, Total", "result": 0.686, "unit": "bc g/pot"}, {"measurement": "Carotenoids", "setting": "0.5 oz/1000 ft^2, day 0", "result": 1.31, "unit": "a mg/g FW"}, {"measurement": "Chlorophyll", "setting": "0.5 oz/1000 ft^2, day 0", "result": 3.43, "unit": "a mg/g FW"}, {"measurement": "Leaf color (1-9, 9 = dark green)", "setting": "0.5 oz/1000 ft^2, day 0", "result": 7.5, "unit": "a"}, {"measurement": "PE (Fv/Fm)", "setting": "0.5 oz/1000 ft^2, day 0", "result": 0.777, "unit": "a"}, {"measurement": "Proline", "setting": "0.5 oz/1000 ft^2, day 0", "result": 19.0, "unit": "a mg/g FW"}, {"measurement": "Carotenoids", "setting": "0.5 oz/1000 ft^2, day 14", "result": 1.31, "unit": "a mg/g FW"}, {"measurement": "Chlorophyll", "setting": "0.5 oz/1000 ft^2, day 14", "result": 3.44, "unit": "a mg/g FW"}, {"measurement": "Clippings dry wt", "setting": "0.5 oz/1000 ft^2, day 14", "result": 0.159, "unit": "ab g/pot"}, {"measurement": "Leaf color (1-9, 9 = dark green)", "setting": "0.5 oz/1000 ft^2, day 14", "result": 7.1, "unit": "bc"}, {"measurement": "PE (Fv/Fm)", "setting": "0.5 oz/1000 ft^2, day 14", "result": 0.744, "unit": "ab"}, {"measurement": "Proline", "setting": "0.5 oz/1000 ft^2, day 14", "result": 21.2, "unit": "bc mg/g FW"}, {"measurement": "Carotenoids", "setting": "0.5 oz/1000 ft^2, day 28", "result": 1.00, "unit": "ab mg/g FW"}, {"measurement": "Chlorophyll", "setting": "0.5 oz/1000 ft^2, day 28", "result": 2.89, "unit": "abc mg/g FW"}, {"measurement": "Clippings dry wt", "setting": "0.5 oz/1000 ft^2, day 28", "result": 0.143, "unit": "b g/pot"}, {"measurement": "Leaf color (1-9, 9 = dark green)", "setting": "0.5 oz/1000 ft^2, day 28", "result": 6.3, "unit": "b"}, {"measurement": "PE (Fv/Fm)", "setting": "0.5 oz/1000 ft^2, day 28", "result": 0.676, "unit": "ab"}, {"measurement": "Proline", "setting": "0.5 oz/1000 ft^2, day 28", "result": 35.1, "unit": "a mg/g FW"}, {"measurement": "Carotenoids", "setting": "0.5 oz/1000 ft^2, day 42", "result": 1.13, "unit": "a mg/g FW"}, {"measurement": "Chlorophyll", "setting": "0.5 oz/1000 ft^2, day 42", "result": 2.80, "unit": "ab mg/g FW"}, {"measurement": "Clippings dry wt", "setting": "0.5 oz/1000 ft^2, day 42", "result": 0.152, "unit": "a g/pot"}, {"measurement": "Leaf color (1-9, 9 = dark green)", "setting": "0.5 oz/1000 ft^2, day 42", "result": 6.9, "unit": "ab"}, {"measurement": "PE (Fv/Fm)", "setting": "0.5 oz/1000 ft^2, day 42", "result": 0.668, "unit": "ab"}, {"measurement": "Proline", "setting": "0.5 oz/1000 ft^2, day 42", "result": 34.9, "unit": "bc mg/g FW"}, {"measurement": "Carotenoids", "setting": "0.5 oz/1000 ft^2, day 56", "result": 1.08, "unit": "ab mg/g FW"}, {"measurement": "Chlorophyll", "setting": "0.5 oz/1000 ft^2, day 56", "result": 2.63, "unit": "abc mg/g FW"}, {"measurement": "Clippings dry wt", "setting": "0.5 oz/1000 ft^2, day 56", "result": 0.233, "unit": "ab g/pot"}, {"measurement": "Leaf color (1-9, 9 = dark green)", "setting": "0.5 oz/1000 ft^2, day 56", "result": 6.3, "unit": "bc"}, {"measurement": "PE (Fv/Fm)", "setting": "0.5 oz/1000 ft^2, day 56", "result": 0.646, "unit": "ab"}, {"measurement": "Proline", "setting": "0.5 oz/1000 ft^2, day 56", "result": 62.9, "unit": "ab mg/g FW"}, {"measurement": "Root Biomass", "setting": "0.5 oz/1000 ft^2, end of trial", "result": 1.34, "unit": "b g/pot"}, {"measurement": "Root Diameter", "setting": "0.5 oz/1000 ft^2, end of trial", "result": 0.189, "unit": "ab mm"}, {"measurement": "Root Length", "setting": "0.5 oz/1000 ft^2, end of trial", "result": 33.1, "unit": "b mm/cm^3"}, {"measurement": "Root Volume", "setting": "0.5 oz/1000 ft^2, end of trial", "result": 9.6, "unit": "a dm^3/cm^3"}, {"measurement": "Root Viability", "setting": "0.5 oz/1000 ft^2, end of trial", "result": 0.877, "unit": "abcd A490/g FW"}, {"measurement": "Clippings dry wt", "setting": "1.0 oz/1000 ft^2, Total", "result": 0.876, "unit": "a g/pot"}, {"measurement": "Carotenoids", "setting": "1.0 oz/1000 ft^2, day 0", "result": 1.30, "unit": "a mg/g FW"}, {"measurement": "Chlorophyll", "setting": "1.0 oz/1000 ft^2, day 0", "result": 3.42, "unit": "a mg/g FW"}, {"measurement": "Leaf color (1-9, 9 = dark green)", "setting": "1.0 oz/1000 ft^2, day 0", "result": 7.5, "unit": "a"}, {"measurement": "PE (Fv/Fm)", "setting": "1.0 oz/1000 ft^2, day 0", "result": 0.743, "unit": "a"}, {"measurement": "Proline", "setting": "1.0 oz/1000 ft^2, day 0", "result": 18.6, "unit": "a mg/g FW"}, {"measurement": "Carotenoids", "setting": "1.0 oz/1000 ft^2, day 14", "result": 1.31, "unit": "a mg/g FW"}, {"measurement": "Chlorophyll", "setting": "1.0 oz/1000 ft^2, day 14", "result": 3.43, "unit": "a mg/g FW"}, {"measurement": "Clippings dry wt", "setting": "1.0 oz/1000 ft^2, day 14", "result": 0.211, "unit": "a g/pot"}, {"measurement": "Leaf color (1-9, 9 = dark green)", "setting": "1.0 oz/1000 ft^2, day 14", "result": 7.3, "unit": "abc"}, {"measurement": "PE (Fv/Fm)", "setting": "1.0 oz/1000 ft^2, day 14", "result": 0.765, "unit": "a"}, {"measurement": "Proline", "setting": "1.0 oz/1000 ft^2, day 14", "result": 21.6, "unit": "bc mg/g FW"}, {"measurement": "Carotenoids", "setting": "1.0 oz/1000 ft^2, day 28", "result": 1.02, "unit": "b mg/g FW"}, {"measurement": "Chlorophyll", "setting": "1.0 oz/1000 ft^2, day 28", "result": 2.71, "unit": "bc mg/g FW"}, {"measurement": "Clippings dry wt", "setting": "1.0 oz/1000 ft^2, day 28", "result": 0.225, "unit": "a g/pot"}, {"measurement": "Leaf color (1-9, 9 = dark green)", "setting": "1.0 oz/1000 ft^2, day 28", "result": 7.0, "unit": "a"}, {"measurement": "PE (Fv/Fm)", "setting": "1.0 oz/1000 ft^2, day 28", "result": 0.715, "unit": "ab"}, {"measurement": "Proline", "setting": "1.0 oz/1000 ft^2, day 28", "result": 25.8, "unit": "b mg/g FW"}, {"measurement": "Carotenoids", "setting": "1.0 oz/1000 ft^2, day 42", "result": 0.99, "unit": "ab mg/g FW"}, {"measurement": "Chlorophyll", "setting": "1.0 oz/1000 ft^2, day 42", "result": 2.47, "unit": "ab mg/g FW"}, {"measurement": "Clippings dry wt", "setting": "1.0 oz/1000 ft^2, day 42", "result": 0.189, "unit": "a g/pot"}, {"measurement": "Leaf color (1-9, 9 = dark green)", "setting": "1.0 oz/1000 ft^2, day 42", "result": 6.5, "unit": "b"}, {"measurement": "PE (Fv/Fm)", "setting": "1.0 oz/1000 ft^2, day 42", "result": 0.673, "unit": "ab"}, {"measurement": "Proline", "setting": "1.0 oz/1000 ft^2, day 42", "result": 38.9, "unit": "abc mg/g FW"}, {"measurement": "Carotenoids", "setting": "1.0 oz/1000 ft^2, day 56", "result": 0.96, "unit": "ab mg/g FW"}, {"measurement": "Chlorophyll", "setting": "1.0 oz/1000 ft^2, day 56", "result": 2.55, "unit": "bc mg/g FW"}, {"measurement": "Clippings dry wt", "setting": "1.0 oz/1000 ft^2, day 56", "result": 0.252, "unit": "a g/pot"}, {"measurement": "Leaf color (1-9, 9 = dark green)", "setting": "1.0 oz/1000 ft^2, day 56", "result": 6.4, "unit": "abc"}, {"measurement": "PE (Fv/Fm)", "setting": "1.0 oz/1000 ft^2, day 56", "result": 0.651, "unit": "a"}, {"measurement": "Proline", "setting": "1.0 oz/1000 ft^2, day 56", "result": 68.5, "unit": "a mg/g FW"}, {"measurement": "Root Biomass", "setting": "1 oz/1000 ft^2, end of trial", "result": 1.64, "unit": "ab g/pot"}, {"measurement": "Root Diameter", "setting": "1 oz/1000 ft^2, end of trial", "result": 0.174, "unit": "b mm"}, {"measurement": "Root Length", "setting": "1 oz/1000 ft^2, end of trial", "result": 40.3, "unit": "ab mm/cm^3"}, {"measurement": "Root Volume", "setting": "1 oz/1000 ft^2, end of trial", "result": 9.7, "unit": "a dm^3/cm^3"}, {"measurement": "Root Viability", "setting": "1 oz/1000 ft^2, end of trial", "result": 1.076, "unit": "ab A490/g FW"}]}]}
